Measured values as given in PMC8110993, “Structure and antimicrobial activity of NCR169, a nodule-specific cysteine-rich peptide of Medicago truncatula” (Scientific Reports, 2021).
Read-outs that look alike come from different tables or passages of the source. Where a SMILES comes first, the peptide text is derived from it. Bridges are numbered along the chain shown (N, C = ends).

Assays:
Escherichia coli K-12 = format: cell-based
Method: (§1) Antimicrobial tests were performed using the drop plate method[12],[47]. Bacterial strains in the logarithmic phase (OD600 = 0.5–0.8) were diluted with 5 mM HEPES–KOH (pH 7.0) to a bacterial culture value of 1 × 10^6 CFU/mL. At OD600 = 0.1, the concentrations of S. meliloti and E. coli K-12 cells were 6.4 × 10^6 CFU/mL and 5.2 × 10^7 CFU/mL, respectively. Equal volumes of bacteria (S. meliloti or E. coli K-12) and NCR169 peptide or PMB were mixed and incubated at room temperature for 2 h. For antimicrobial tests against S. meliloti, 10 μL of each serially diluted mixture was spotted on MHB plates with 2.5 mM MgCl2, and 2.5 mM CaCl2, followed by incubation at 30 °C for 40 h. For antimicrobial tests against E. coli K-12, 10 μL of each mixture was spotted on Mueller Hinton Broth (MHB; MilliporeSigma, Burlington, MA, USA) plates followed by incubation at 30 °C for 13 h.
(§2) To estimate survival rate, the peptide-treated bacterial mixtures were serially diluted with the buffer before spotting on the plate. Bacterial survival rates were calculated using the colony numbers of each bacterial strain with or without peptide treatment. All experiments were repeated at least four times.
(§3) Supplementary Table S2. Antimicrobial activities of NCR169 peptides against E. coliK-12 and S. meliloti.
(§4) Peptide IC50 (μM)* IC100 (μM)
(§5) E. coli K-12 S. meliloti E. coli K-12 S. meliloti
(§6) IC50: 50% inhibitory concentration (Calculated using “Dose-response curve” fitting)

Sinorhizobium meliloti = format: cell-based
Method: as §1, §2, §3, §4, §5, §6

[1] = Liposome sedimentation (binding) assay; conditions: peptide 20 μM, 2 mM DMPG liposomes, 20 mM HEPES, 150 mM NaCl, pH 7.0, 30 min room temperature, 200,000×g, supernatant and pellet by Tricine-SDS-PAGE
Method: (§7) Figure 3 NCR169 binds to the bacterial phospholipid. (A) Circular dichroism (CD) spectra of NCR169 peptides (NCR169-ox1 and -ox2). NCR169 peptides (20 μM) were dissolved in the following solvents: water (No additives), 2 mM DMPC liposomes, 2 mM DMPG liposomes or 30% 2,2,2-trifluoroethanol (TFE). (B) The results of liposome binding assays. The NCR169 peptide (20 μM) was incubated with buffer (No lipid), 2 mM DMPC liposomes, or 2 mM DMPG liposomes. After incubation at room temperature for 30 min, the mixture was ultra-centrifuged at 200,000×g. The supernatant and pellet fractions were analyzed by Tricine-SDS-PAGE. The no lipid sample before ultra-centrifugation was used as the input.
(§8) The phospholipids DMPC and DMPG were purchased from Avanti Polar Lipids (Alabaster, AL, USA). An appropriate amount of phospholipid was dissolved in chloroform and dried under vacuum for 1 h. The lipid film was suspended in water, vortexed, and sonicated for 30 min to form the liposomes.
(§9) The assay was carried out as described previously. Briefly, equal volumes of NCR169 peptide (20 μM) and liposomes (2 mM) were mixed in assay buffer (20 mM HEPES, 150 mM NaCl, pH 7.0) and incubated for 30 min at room temperature, followed by ultracentrifugation at 200,000×g for 15 min at 20 °C. After centrifugation, the supernatant was collected, and the pellet was dissolved in the same volume of assay buffer containing 0.2% Triton X-100. The supernatant and pellet fractions were subjected to Tricine-SDS-PAGE, and peptides were detected by Coomassie Brilliant Blue staining.
Supplementary Figure S11. NCR 169 M binds to the bacterial phospholipid. (A) Circular dichroism (CD) spectra of NCR169M (20 μM) in water (No additive), 2 mM dimyristoylphosphatidylcholine (DMPC) liposomes, 2 mM dimyristoylphosphatidylglycerol (DMPG) liposomes or 30% 2,2,2-trifluoroethanol (TFE). (B) The result of liposome binding assay. NCR169M (20 μM) was incubated with buffer (No lipid),2 mM DMPC liposomes, or 2 mM DMPG liposomes . After incubation at room temperature for 30 min, the mixture was ultra-centrifuged at 200,000 × g. The supernatant and pellet fractions were analyzed by Tricine-SDS-PAGE. The no lipidsample before ultra-centrifugation was used as the input.
(also on this page, place not known: [θ] (103 deg cm2 dmol-1) markerkDa input No lipid sup ppt sup ppt sup ppt NCR169M lipid), DMPC 2 DMPG liposomes. lipid sample)
(1 picture or pasted object on this page, not shown here)
Supplementary Figure S12. The results of liposome binding assays. (A) NCR169-derived peptide (10 μM) was incubated with buffer (No lipid), 1 mM DMPC liposomes, 1 mM DMPG liposomes. After incubation at room temperature for 30 min, the mixture was ultra-centrifuged at 200,000 × g. The supernatant and pellet fractions were analyzed by Tricine-SDS-PAGE. The no lipid sample before ultra-centrifugation was used as the input. Arrows indicate weak bands. (B) […]

[2] = Liposome sedimentation (binding) assay; conditions: peptide 20 μM, 2 mM DMPC liposomes, 20 mM HEPES, 150 mM NaCl, pH 7.0, 30 min room temperature, 200,000×g, supernatant and pellet by Tricine-SDS-PAGE
Method: as §7, §8
as §9, with “After centrifugation, the supernatant was collected, and the pellet was dissolved in the same volume of assay buffer containing 0.2% Triton X-100.” left out

[3] = format: physicochemical
Method: (§10) To confirm it, we examined the solubility of NCR169 in various solvents, HEPES (salt-free), HEPES with salt (50 to 200 mM NaCl or KCl), and PBS. […] In other words, the disulfide bonds of NCR169 contribute to its solubility.
Supplementary Figure S3. Solubility assessment of NCR169. The same amount of NCR169 was dissolved in various solvents. After incubation at room temperature for 1 h, the solution was centrifuged at 20,000 × g and the supernatant was analyzed by Tricine-SDS-PAGE. […]

[4] = format: physicochemical; conditions: pH 2.2
Method: We further measured the circular dichroism (CD) spectra of NCR169-ox1 and -ox2 under various pH conditions to confirm their structural stability against pH (Supplementary Fig. S4). […] Because acidic pH is preferable for amide proton detection in NMR experiments, we performed the following solution NMR study at lower pH.
CD spectra were recorded within a wavelength range of 270–195 nm using a JASCO J-820 spectropolarimeter (JASCO International Co., Ltd., Tokyo, Japan). A quartz cell with a light path length of 1 mm was used for the measurements. The sample temperature was maintained at 25 °C during the measurements.
Supplementary Figure S4. Circular dichroism (CD) spectra of NCR169-ox1 and -ox2 under
various pH conditions. The signal reflectingβ-sheet structure (218 nm) was hardly changed.

[5] = HPLC retention time as measure of surface hydrophobicity; format: physicochemical; conditions: C18 column, linear gradient 30 to 45% acetonitrile, 220 nm; compared with NCR169 oxidized forms
Method: Figure 1 Sample preparation of NCR169 peptides. (A) High-performance liquid chromatography (HPLC) analyses of NCR169 peptides. Purified NCR169-ox1, NCR-ox2, NCR169-red, and reoxidized NCR169-red (NCR-red + GSSG) were analyzed by HPLC with a linear gradient of 30 to 45% acetonitrile and monitored at 220 nm. (B) MALDI-TOF–MS spectra of HPLC-purified NCR169-ox1 (upper), NCR169-ox2 (middle), and NCR169-red (lower). (C) Amino acid sequences of NCR169 peptides used in this study. The cysteine numbers (C1 to C4) are indicated in red on the sequence. The experimentally determined disulfide linkage patterns are indicated by connecting lines on the sequences. The first N-terminal residue, G (underlined), is the extra residue remaining after tag cleavage.
as §10
To prepare the reduced peptide (NCR169-red), NCR169-ox was reduced with 10 mM tris(2-carboxyethyl)phosphine (TCEP) at pH 10.5, followed by acidification using trifluoroacetate (TFA) and HPLC purification with a C18 column and 30–45% ACN gradient. The fractions were collected and dried under vacuum conditions. The purified peptides were confirmed using MALDI-TOF–MS.

Compound: CC[C@H](C)[C@@H]1NC(=O)CNC(=O)[C@@H](NC(=O)[C@H](Cc2ccc(O)cc2)NC(=O)[C@H](CCCCN)NC(=O)[C@@H](NC(=O)[C@H](Cc2c[nH]cn2)NC(=O)CNC(=O)[C@@H](NC(=O)[C@H](CC(=O)O)NC(=O)[C@H](CCC(=O)O)NC(=O)CN)[C@@H](C)CC)[C@@H](C)CC)CSSC[C@@H]2NC(=O)[C@H](CCCCN)NC(=O)[C@H](Cc3c[nH]c4ccccc34)NC(=O)[C@H]([C@@H](C)CC)NC(=O)[C@H](CCCCN)NC(=O)[C@H](Cc3ccccc3)NC(=O)[C@H](CC(C)C)NC(=O)[C@@H]3CCCN3C(=O)[C@H](CCCCN)NC(=O)[C@H](CCCCN)NC(=O)[C@H](CO)NC(=O)[C@H](CCCCN)NC(=O)[C@H](Cc3ccc(O)cc3)NC(=O)[C@H](CSSC[C@@H](C(=O)N[C@H](C(=O)N[C@@H](CC(C)C)C(=O)N[C@@H](Cc3c[nH]c4ccccc34)C(=O)N[C@@H](Cc3ccc(O)cc3)C(=O)N[C@@H](CCCCN)C(=O)O)C(C)C)NC(=O)[C@H](C(C)C)NC(=O)[C@H](CC(N)=O)NC(=O)[C@H](CCC(=O)O)NC(=O)[C@H](C(C)C)NC2=O)NC(=O)[C@H](CC(=O)O)NC(=O)[C@H](CC(=O)O)NC(=O)[C@H](C(C)C)NC1=O [NCR169-ox2] (H-GEDIGHIKYCGIVDDCYKSKKPLFKIWKCVENVCVLWYK-OH; disulfide 10-29, 16-34)
- IC100 (Escherichia coli K-12; E. coli K-12, drop plate method, 2 h treatment at room temperature, 5 mM HEPES-KOH pH 7.0): 16 µM
- IC50 (Escherichia coli K-12; K-12, 2 h, pH 7): 3.4 µM
- IC50 (Sinorhizobium meliloti; 2 h, pH 7): 9.8 µM
- IC100 (Sinorhizobium meliloti; S. meliloti, drop plate method, 2 h treatment at room temperature, 5 mM HEPES-KOH pH 7.0): 128 µM
- Binding to DMPG liposomes [1]: hardly binds
- Binding to DMPC liposomes [2]: Neither NCR169-ox1 nor -ox2 bound
- Solubility in various solvents [3]: soluble in all conditions
- Structural stability against pH (CD spectra) [4]: retained their conformations under acidic and neutral conditions

Compound: CC[C@H](C)[C@H](NC(=O)CNC(=O)[C@H](CS)NC(=O)[C@H](Cc1ccc(O)cc1)NC(=O)[C@H](CCCCN)NC(=O)[C@@H](NC(=O)[C@H](Cc1c[nH]cn1)NC(=O)CNC(=O)[C@@H](NC(=O)[C@H](CC(=O)O)NC(=O)[C@H](CCC(=O)O)NC(=O)CN)[C@@H](C)CC)[C@@H](C)CC)C(=O)N[C@H](C(=O)N[C@@H](CC(=O)O)C(=O)N[C@@H](CC(=O)O)C(=O)N[C@@H](CS)C(=O)N[C@@H](Cc1ccc(O)cc1)C(=O)N[C@@H](CCCCN)C(=O)N[C@@H](CO)C(=O)N[C@@H](CCCCN)C(=O)N[C@@H](CCCCN)C(=O)N1CCC[C@H]1C(=O)N[C@@H](CC(C)C)C(=O)N[C@@H](Cc1ccccc1)C(=O)N[C@@H](CCCCN)C(=O)N[C@H](C(=O)N[C@@H](Cc1c[nH]c2ccccc12)C(=O)N[C@@H](CCCCN)C(=O)N[C@@H](CS)C(=O)N[C@H](C(=O)N[C@@H](CCC(=O)O)C(=O)N[C@@H](CC(N)=O)C(=O)N[C@H](C(=O)N[C@@H](CS)C(=O)N[C@H](C(=O)N[C@@H](CC(C)C)C(=O)N[C@@H](Cc1c[nH]c2ccccc12)C(=O)N[C@@H](Cc1ccc(O)cc1)C(=O)N[C@@H](CCCCN)C(=O)O)C(C)C)C(C)C)C(C)C)[C@@H](C)CC)C(C)C [NCR169-red] (H-GEDIGHIKYCGIVDDCYKSKKPLFKIWKCVENVCVLWYK-OH)
- Solubility in various solvents ([3]; 20 mM HEPES pH 7.0 salt-free, or with 50 to 200 mM NaCl or KCl, and PBS pH 7.4, 1 h room temperature, centrifuged 20,000 × g, supernatant by Tricine-SDS-PAGE): insoluble in all conditions except the salt-free buffer
- HPLC retention time (hydrophobicity of molecular surface) [5]: longer than that of the NCR169 oxidized forms
